Read-outs that look alike come from different tables or passages of the source.
Tests used:
recombinant human DYRK1A = target: T1, recombinant human DYRK1A (Homo sapiens, UniProt Q13627); experiment: In vitro kinase assay: DYRK1A catalyzed direct phosphorylation of recombinant tau on serine 396 (western); format: biochemical; details: for IC50: recombinant DYRK1A + 4R2N tau, 1 mM ATP
T1 construct: purchased Invitrogen

[1] = test system: tau phosphorylation in 4R0N tau overexpressing H4 neuroglioma cells; experiment: Cell culture tau assay: western for total and phosphorylated tau after 96 h compound treatment; format: cell-based; details: for 12E8 % Control pTau/Total / pS396 % Control pTau/Total / pT231 % Control pTau/Total: normalized to total tau
Procedure: 4R0N tau overexpressing H4 neuroglioma cells were maintained in Dulbecco's Modified Eagle Medium (Invitrogen) supplemented with 10% fetal bovine serum (Invitrogen), 1% penicillin-streptomycin, geneticin (0.25 mg/ml), and 2 mM L-Glutamine (Invitrogen). Cells were maintained by splitting 1∶10 at 90% confluency. Prior to any experimentation, cells were 70–75% confluent to ensure cells were in their active growth phase. To test effects of DYRK1A knockdown on tau phosphorylation, cells were transfected with DYRK1A siRNA. Prior to treating cells with DYRK1A siRNA, siRNA was first complexed with siLentfect lipid transfection reagent (Bio-Rad) and reduced serum medium (Invitrogen) using a 6 well plate format. The final effective siRNA molarity used was 22.85 nM per well. Cells were grown for 96 hours at 37°C, 5% CO2. Cell lysates were prepared using the Complete Lysis-M, EDTA-free kit (Roche Applied Science) and total protein concentration was quantified using the BCA protein assay (Pierce). Westerns for the multiple forms of tau were performed as described below.
For all cell-based experiments, including siRNA treatments and compound treatments, cells were treated for 96 hours at 37°C, with 5% CO2. Cell lysates were then prepared using the Complete Lysis-M, EDTA-free kit (Roche Applied Science) supplemented with phosphatase inhibitor cocktails 1 and 2 (Sigma). Lysates were quantified using the BCA protein assay (Pierce). Protein from lysates (30 µg total protein per lane) was separated on SDS-PAGE gels and transferred to nitrocellulose membrane. Membranes were blocked in 5% blocking solution for one hour at room temperature (RT). Blocking buffer solution used for detection of non phosphorylated protein contained 5% Non-fat dry milk in 1×-TBS-T (50 mM Tris-HCl pH 7.4, 137 mM […], 2.7 mM KCl, 0.1% Tween). For detection of phosphorylated protein, blocking buffer solution contained 5% Bovine Serum Albumin in 1× TBS-T. Membranes were probed with primary antibody (various dilutions depending on the epitope – see below) in blocking buffer overnight at 4°C on a rocker. Membranes were subsequently washed with 1× TBS-T and probed with secondary antibody in blocking buffer for forty-five minutes using a 1∶25,000 dilution of HRP-GAM or HRP-GAR (Jackson Immunoresearch), depending on the species (mouse or rabbit) in which the primary antibodies were raised. Following incubation with secondary antibody, membranes were washed in 1× TBS-T and developed with Super Signal West Femto Maximum Sensitivity Substrate Kit ([…]) and digitally imaged. Protein band signal saturation was assessed before any further analysis of multiple forms of tau. Alpha Innotech Fluoro Chem SF imaging software verifies degrees of saturation when signal intensity is beyond the dynamic range (which is from 0–65,535). Protein band signal intensities used for quantification were within the instrument's dynamic range.
To test multiple primary antibodies, membranes were stripped for 15 minutes at RT using ReBlot Plus Mild Antibody Stripping Solution (Millipore). Membranes were then washed for 5 minutes in 1× TBS-T and blocked for one hour in 5% blocking solution at RT. For verification of protein loading, membranes were reprobed overnight at 4°C with an anti-Tubulin primary antibody (1∶1000 dilution; Cell Signaling). Primary antibodies used for detection included anti-tau (1∶2000 dilution; Dako), 12E8 tau (1∶7500 dilution; Peter Seubert, Elan Pharmaceuticals), pT231 tau (1∶1000 dilution; Abcam), pS396 tau (1∶5000 dilution; Abcam), and anti-DYRK1A (1∶500 dilution; Santa Cruz).
Cells undergoing any treatment, including β-carboline derivative dosing and siRNA treatment, were maintained in Dulbecco's Modified Eagle Medium (Invitrogen) supplemented with 10% fetal bovine serum (Invitrogen) and 2 mM L-Glutamine (Invitrogen). Viability assays were performed using a 96-well pate format. […]

[2] = alamar Blue viability (toxicity) assay; format: cell-based; details: human; H4 neuroglioma cells, drug renewed every 24 h for four days; read-out: IC50 for viability (concentration resulting in 50% cell viability)
Procedure: Cells undergoing any treatment, including β-carboline derivative dosing and siRNA treatment, were maintained in Dulbecco's Modified Eagle Medium (Invitrogen) supplemented with 10% fetal bovine serum (Invitrogen) and 2 mM L-Glutamine (Invitrogen). Viability assays were performed using a 96-well pate format. Metabolic activity was measured 12 hours after the addition of 10% alamar Blue (Invitrogen) directly to attached cells in full medium. This assay was based on the ability of metabolically active cells to convert alamar Blue reagent into a fluorescent signal proportional to innate metabolic activity. Once the ideal IC50 value for viability was identified, effects on multiple forms of tau were investigated after treating with the β-carbolines indicated in Table S1 using the larger 6 well plate format. For both the viability assay and cell culture tau assays, cell culture media was removed and cells were treated with freshly made drug in new media every 24 hours for four days. For cell culture tau assays, protein lysates were prepared after 96 hours of treatment. All compounds were solubilized in dimethylsulfoxide (DMSO), diluted in growth medium to their respective 0.01 µM, 0.1 µM, 1 µM and 10 µM final working dilutions and added directly to cultured cells. The final DMSO percentage in culture for all compounds and concentrations tested was 0.1%. […]

DYRK1A = test system: DYRK1A; parameters: method as in PMID 17850214; details: synthetic peptide substrate; read-out: IC50 against DYRK1A; cited from earlier work
MAO-A = test system: MAO-A; parameters: method as in PMID 18980841; details: read-out: IC50 against MAO-A; cited from earlier work
[3] = read-out: IC50 for inhibition of DYRK1A dependent tau phosphorylation at serine 396
[4] = 30 min 30C, read-out: IC50 for inhibition of DYRK1A dependent tau phosphorylation at serine 396 (pS396)

CCn1c2cc(OC)ccc2c2ccnc(C)c21 [9-ethylharmine]
Reduction of IC50 relative to harmine (recombinant human DYRK1A; pS396 in vitro phosphorylation, ethyl group on N-9 vs harmine): ~2 fold
IC50 (recombinant human DYRK1A; [3]): 0.4 µM
Concentration at which tau levels were significantly reduced (p<0.05) ([1]; H4-tau cells, 96 h): 1 µM

COc1ccc2c3c([nH]c2c1)C(C)=NCC3 [Harmaline, harmaline]
IC50 (recombinant human DYRK1A; [4]): 9 µM

Cc1nccc2c1[nH]c1ccccc12 [Harmane, harmane]
IC50 (recombinant human DYRK1A; [4]): 15 µM

COc1ccc2c(c1)[nH]c1c(C)nccc12 [Harmine]
IC50 at 4 days [2]: 12 µM
12E8 (pS262/pS356) tau % Control ([1]; 8 µM, 96 h, H4-tau cells): 32 ± 7 % Control
Total Tau % Control ([1]; 8 µM, 96 h, H4-tau cells): 55 ± 9 % Control
pS396 tau % Control ([1]; 8 µM, 96 h, H4-tau cells): 49 ± 8 % Control
pT231 tau % Control ([1]; 8 µM, 96 h, H4-tau cells): 24 ± 6 % Control
12E8 % Control pTau/Total ([1]; 8 µM, 96 h): 58 ± 6 % Control
pS396 % Control pTau/Total ([1]; 8 µM, 96 h): 89 ± 7 % Control
pT231 % Control pTau/Total ([1]; 8 µM, 96 h): 44 ± 5 % Control
12E8 % Control pTau/Total ([1]; 8 µM, 96 h, listed as harmine): 58 % Control
pT231 % Control pTau/Total ([1]; 8 µM, 96 h, listed as harmine): 44 % Control

Cc1[nH]ccc2c1[nH]c1cc(=O)ccc12 [Harmol, harmol]
IC50 (recombinant human DYRK1A; [3]): 0.09 µM

O=C(NCCN1CCOCC1)c1ccc(Cl)cc1 [Moclobemide]
12E8 (pS262/pS356) tau % Control ([1]; 500 µM (highest concentration), 96 h): 116 ± 10 % Control
Total Tau % Control ([1]; 500 µM, 96 h): 103 ± 7 % Control
pS396 tau % Control ([1]; 500 µM, 96 h): 98 ± 9 % Control
pT231 tau % Control ([1]; 500 µM, 96 h): 118 ± 13 % Control
12E8 % Control pTau/Total ([1]; 500 µM): 112 ± 8 % Control
pS396 % Control pTau/Total ([1]; 500 µM): 95 ± 9 % Control
pT231 % Control pTau/Total ([1]; 500 µM): 114 ± 12 % Control
Effect on levels of total tau or specific phosphorylated forms of tau ([1]; doses up to 500 µM): did not reduce
IC50 (MAO-A): 3.9 µM

c1ccc2c(c1)[nH]c1cnccc12 [Norharmane, norharmane]
IC50 (recombinant human DYRK1A; [4]): 45 µM

From paper PMC3089604 (PLoS ONE, 2011)
